Assay results reported in patent US11679118B2, “Parasite therapy” (priority 2009, dated 2023).

How the values were obtained:
[1] = test system: D. fragilis or B. hominis; test: Treatment of patients with D. fragilis and/or B. hominis infection (combined infection), symptoms and overall outcome; format: in vivo, Dientamoeba fragilis; Blastocystis hominis; settings: for stool examination after previous treatments / symptoms after previous treatments: patient, various treatments before referral; for outcome of previous treatments: patient with combined B. hominis and D. fragilis infection, 3 different treatments before referral
Method: In another aspect the present invention relates to triple combinations of drugs. In some circumstances, especially with resistance even triple therapies may need to be combined to effect a cure. […] Again, the treatment requires 1 mg-5 grams/day of each of the components from 1-50 days. Other triple combinations can include iodoquinol, furazolidone and nitazoxanide. Combinations can also include diloxinide furoate, doxycycline and metronidazole in various triple combinations.
(§1) The patient was brought into the clinic and after bowel preparation a transcolonoscopic infusion of furazolidone, nitazoxanide and secnidazole was carried out.
The patient was referred to the Clinic for treatment. Symptoms were quite severe and they were given a combination of four medications including Septrin DS (cotrimoxazole) two times a day, diloxanide furoate 500 mg three times a day and secnidazole 400 mg three times a day together with doxycycline 50 mg two times a day.

[2] = test system: B. hominis; test: Treatment of patients with B. hominis infection, follow-up by stool test and symptoms; format: in vivo, Blastocystis hominis
[3] = test system: Giardia lamblia; test: Treatment of a patient with chronic Giardiasis, follow-up by stool tests and symptoms; format: in vivo; settings: previous speculative treatment in adequate doses
Excerpt: A patient with weight loss and diarrhea presented for an endoscopy.

[4] = test system: B. hominis; settings: in Egypt; Rossignol et al 2005; cited from earlier work
[5] = test system: D. fragilis; test: Treatment of patients with D. fragilis infection, follow-up by stool test; format: in vivo, Dientamoeba fragilis; settings: clinical experience and usage; also frequently ineffective as monotherapy
Method: as §1

[6] = person, 400 mg bid for 14 days, at 6 months

O=C1OCCN1/N=C/c1ccc([N+](=O)[O-])o1 [furazolidone]
stool examination after previous treatments [1]: ongoing B. hominis and D. fragilis | symptoms after previous treatments [1]: improved but then they recurred

Cc1ncc([N+](=O)[O-])n1CCO [metronidazole]
outcome of previous therapies ([2]; resistant Blastocystis hominis, multiple therapies before referral): failed | Giardia lamblia infection, histologically at endoscopy [3]: continued to have Giardia lamblia infection | diarrhea [3]: did not settle | outcome of previous treatments [1]: failed | stool examination after previous treatments [1]: ongoing B. hominis and D. fragilis | symptoms after previous treatments [1]: improved but then they recurred

CC(=O)Oc1ccccc1C(=O)Nc1ncc([N+](=O)[O-])s1 [nitazoxanide]
stool examination after previous treatments [1]: ongoing B. hominis and D. fragilis | symptoms after previous treatments [1]: improved but then they recurred | effectiveness against Blastocystis hominis [4]: effective

CCn1cc(C(=O)O)c(=O)c2cc(F)c(N3CCNCC3)cc21 [norfloxacin]
effectiveness in treatment against Blastocystis hominis ([2]; clinical experience and usage, also frequently ineffective as monotherapy): effective | stool test for B. hominis [2, 6]: negative for B. hominis again | symptoms [2, 6]: still asymptomatic | stool test for B. hominis ([2]; person, 400 mg bid for 14 days, follow up at 4 weeks): negative for B. hominis | effectiveness in treatment against Dientamoeba fragilis [5]: effective

CCS(=O)(=O)CCn1c([N+](=O)[O-])cnc1C [tinidazole]
outcome of previous treatments [1]: failed
